The test relates to Peripheral Neuropathy in a Mouse Caused by Bortezomib. It is filed as in vivo, Balb/c mice. The following applies: 1 mg/kg bortezomib + 100 mg/kg orally daily from Day 6 (therapy); from Day 12 onwards. From the text:
Six to seven-week-old female Balb/c mice were used for the tests. All the mice were acclimated for seven days after arrival. Then, the mice were grouped into the following four groups: a control group, a group receiving bortezomib, a group receiving xylitol, and a group receiving bortezomib and xylitol (a group receiving bortezomib+xylitol). Each group consisted of five mice.
On Day 8 of acclimation, the mice in the group receiving bortezomib and the group receiving bortezomib+xylitol were intraperitoneally administered with bortezomib at a dose of 1 mg/kg. This day was designated as Day 0 of administration. Thereafter, these mice were intraperitoneally administered with bortezomib at a daily dose of 1 mg/kg on Day 7 and Day 14.
The mice in the group receiving xylitol and the group receiving bortezomib+xylitol were orally administered with xylitol at a dose of 5 mg/kg daily from Day 0.
The mice in the four groups described in (10) of the present example (Example 1) were placed in a cage, and the avoidance response frequency (score) was measured by pressing a filament with a bending force of 0.16 g against the back of the hind paw.
Six to seven-week-old female Balb/c mice were used for the tests as with Example 1. All the mice were acclimated for seven days after arrival. Then, the mice were grouped into the following four groups: a control group, a group receiving bortezomib, a group receiving xylitol, and a group receiving bortezomib and xylitol (a group receiving bortezomib+xylitol). Each group consisted of five mice. […]
For the mice in the four groups described in (12) of the present example (Example 2), the avoidance response frequency (score) was measured by pressing a filament with a bending force of 0.16 g against the back of the hind paw. […]
The mice in the four groups described in (10) of the present example (Example 3) were placed in a cage, and the avoidance response frequency (score) was measured by pressing a filament with a bending force of 0.16 g against the back of the hind paw. […]
On to `OC[C@@H](O)[C@H](O)CO` [D-threitol], for which the avoidance response score result is on record as “maintained a score clearly lower than that of the group receiving bortezomib”.
Consider `OC[C@@H](O)[C@H](O)[C@@H](O)CO` [xylitol], for which the avoidance response score entry is “maintained a score clearly lower than that of the group receiving bortezomib”.
`OC[C@H](O)[C@H](O)[C@H](O)[C@@H](O)CO` [L-talitol]: the avoidance response score result is recorded as “maintained a score clearly lower than that of the group receiving bortezomib”.
